≈ marks a conversion by molar mass, not a printed value. Like-named read-outs stand apart in the source and are kept apart here.
Columns and labels:
[1] = Pharmacokinetics and safety in subjects with renal impairment / ESRD (VER001-3, -11, -13); settings: for half-life: human, plasma, intravenous
Experimental: The peak concentrations (Cmax) were obtained directly from the observed data. The area under the plasma concentration-time curve (AUC) were calculated using the linear trapezoidal rule.
Clinical Study VER001-13 examined subjects with mild and moderate renal impairment and Clinical Study VER001-1 examined subjects with severe renal impairment and subjects with end-stage renal disease (ESRD). Matched control subjects were enrolled in all studies. […] Subjects with ESRD were dependent on dialysis through the course of the study (3 times weekly).

[2] = rat, in vivo
Experimental: Excreta and more than 40 different tissues were collected through 70 days post-administration, and the tissue distribution and pharmacokinetics of drug-derived radioactivity were determined.
Following dose administration, urine and feces were collected at 24 hour intervals to 14, 36, and 70 days after the dose (3 rats/final collection time). Water and methanol cage washes were also collected. Carcasses were analyzed at the end of the collection period. All samples were analyzed for total radioactivity content by liquid scintillation counting (LSC).

[3] = clinical; settings: human, in vivo
Text: The study enrolled otherwise healthy subjects with mild, moderate, or severe hepatic impairment (Child-Pugh scores 5 to 6, 7 to 9, and 10 to 15, respectively) and matched control subjects with normal hepatic function.

[4] = system: E faecalis; assay: MIC, microbiological activity (Table 3); format: cell-based; settings: read-out: MIC
[5] = Plasma pharmacokinetics in thigh-infected neutropenic mice; settings: intraperitoneal
Experimental: Neutropenia in this and all other studies was produced by injections of cyclophosphamide, 150 mg/kg 4 days prior to study, 100 mg/kg 1 day prior to study and 100 mg/kg every 48 h after start of infection until end of study. Neutrophil counts remained less than 100/mm^3 for the duration of study. Doses of 2.5, 5, 10, 20; 40, and 80 mg/kg were studied. Drug was administered by intraperitoneal injection of 0.2 ml volume. Blood was removed from groups of three mice by retroorbital aspiration into heparinized capillary tubes at 0.5, 1, 2, 4, 6, 24, 48, 72, and 96 hours after dosing. […] AUC was calculated by the trapezoidal rule from mean concentrations.

[6] = system: C albicans; assay: MIC, microbiological activity (Table 3); format: cell-based; settings: L 145 C albicans SKF2270; read-out: MIC
[7] = system: B subtilis; assay: MIC, microbiological activity (Table 3); format: cell-based; settings: L 102 B subtilis ATCC; read-out: MIC
[8] = system: S. aureus; assay: Murine thigh-infection model (time kill, dosing regimen, PK/PD; Tables 31, 32);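 note: mouse thigh infection, bacterial counts per thigh after therapy, dose-response curves fitted with a maximum effect model to give static and 1 or 2 log kill exposures, mean of 4 thighs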
Experimental: The murine thigh-infection model was used for all organisms throughout the various studies. In this well-established model, approximately 10^6 Cfu of the study organisms are injected into one or both thighs (in 0.1 ml) two hours before starting therapy. The number of organisms in the thigh at the start of therapy in the following studies varied from 10^7.15-7.59 cfu/thigh.
Each point represents the mean of 4 thighs. Five dose levels, ranging 16-fold were used. The dose levels used in the study against S. aureus ranged from 5 to 80 mg/kg.
In these studies, multiple dosing regimens varying the dose and dosage interval were administered intraperitoneally in 0.2 ml volumes to groups of mice for 144 h (6 days). The dosing intervals chosen were 12, 24, 36, and 72 hours. Five different doses (two-fold increases) were used. Study against S. aureus utilized total dose (mg/kg/6d) levels ranging from 30 to 480 mg/kg/6d. […] Each point represents the mean of 4 thighs.
Each of the dose-response curves was also mathematically characterized using a maximum effect model. […] From these parameters we could then calculate the dose required to produce a net bacteriostatic effect over the 144 hour treatment period as well as the doses necessary to produce a 1 and 2 log-reduction in organism burden.
We determined which PK/PD parameter correlated best with efficacy by relating the number of bacteria in thigh at the end of 144 hours of therapy with [1] the peak/MIC ratio, [2] the AUC/MIC ratio, and [3] the percentage of the dosing interval that serum levels exceed the MIC for each of the dosage regimens studied. The PK/PD parameter values for those doses not specifically studied were extrapolated from the values of the nearest studied doses. […] Each point represents the mean of four thighs. […] The data illustrated in these figures were also analyzed by the same maximum dose-response model mentioned above, except that the different PK/PD parameters were used in place of the dose. The R^2 represents the coefficient of determination observed for the relationship between efficacy and each PK/PD parameter.

[9] = Mean ± SD of S. aureus strains, q 24 h regimen
[10] = Mean ± SD of S. aureus strains, q 72 h regimen

Which results are given for CN[C@H]1C(=O)N[C@@H]2Cc3ccc(cc3)Oc3cc4cc(c3O[C@@H]3O[C@H](C(=O)O)[C@@H](O)[C@H](O)[C@H]3NC(=O)CCCCCCCCC(C)C)Oc3ccc(cc3Cl)[C@@H](O)[C@@H]3NC(=O)[C@H](NC(=O)[C@@H]4NC(=O)[C@@H](NC2=O)c2cc(cc(O)c2Cl)Oc2cc1ccc2O)c1ccc(O)c(c1)-c1c(O[C@H]2O[C@H](CO)[C@@H](O)[C@H](O)[C@@H]2O)cc(O)cc1[C@@H](C(=O)NCCCN(C)C)NC3=O [Dalbavancin]?
half-life ([1]; 500 mg, t1/2, ESRD Postdialysis (N = 3), VER001-11, single dose 500 mg): 14.5 days; half-life ([1]; 500 mg, t1/2, ESRD Predialysis (N = 3), VER001-11, single dose 500 mg): 15.7 days; half-life ([1]; 500 mg, t1/2, Normal Renal Function (N = 6), VER001-11, single dose 500 mg): 13.9 days; half-life ([1]; 500 mg, t1/2, Severe Renal Impairment (N = 6), VER001-11, single dose 500 mg): 18.9 days; half-life ([1]; 1000 mg, t1/2, Mild Renal Impairment (N = 6), VER001-13, single dose 1000 mg): 16.2 days; half-life ([1]; 1000 mg, t1/2, Moderate Renal Impairment (N = 6), VER001-13, single dose 1000 mg): 18 days; half-life ([1]; 1000 mg, t1/2, Normal Renal Function (N = 9), VER001-13, single dose 1000 mg): 17.4 days; half-life ([1]; 1000 mg, t1/2, Severe Renal Impairment (N = 4), VER001-11, single dose 1000 mg): 19.5 days; half-life ([1]; 1120 mg, t1/2, Normal Renal Function (N = 3), VER001-2, single dose 1120 mg): 6.21 days; increase in concentrations vs normal renal function ([1]; severe renal impairment, through the first week post-dose): ≤ 40%; dose remaining in the carcass ([2]; male, Sprague-Dawley, 1680 h): 4.5 % of the dose; share of excreted radioactivity eliminated in feces ([2]; iv, 20 mg/kg): ⅓; share of excreted radioactivity eliminated in urine ([2]; iv, 20 mg/kg): ⅔; clearance ([3]; CL): 0.777 mL/min; Vd ([3]; Vss): 18.1 L; MIC ([4]; L 149 E faecalis): 0.06 µg/mL (≈ 0.033 µM); MIC ([4]; L 562 E faecalis clin. isolate): > 32 µg/mL; time of peak levels [5]: 4 to 6 h; MIC [6]: > 32 µg/mL; MIC [7]: < 0.03 µg/mL; 1 Log Kill f24AUC/MBC ([8]; MRSA, q 24 h regimen): 109; 1 Log Kill f24AUC/MIC ([8]; MRSA, q 24 h regimen): 452; 1 Log Kill mg/kg/24 h ([8]; MRSA, q 24 h regimen): 45.3 mg/kg/24 h; 2 Log Kill f24AUC/MBC ([8]; MRSA, q 24 h regimen): 125; 2 Log Kill f24AUC/MIC ([8]; MRSA, q 24 h regimen): 519; 2 Log Kill mg/kg/24 h ([8]; MRSA, q 24 h regimen): 53.5 mg/kg/24 h; Static Effect f24AUC/MBC ([8]; MRSA, q 24 h regimen): 90; Static Effect f24AUC/MIC ([8]; MRSA, q 24 h regimen): 374; Static Effect mg/kg/24 h ([8]; MRSA, q 24 h regimen): 37.7 mg/kg/24 h; 1 Log Kill f24AUC/MBC ([8]; MRSA, q 72 h regimen): 48.8; 1 Log Kill f24AUC/MIC ([8]; MRSA, q 72 h regimen): 202; 1 Log Kill mg/kg/24 h ([8]; MRSA, q 72 h regimen): 62 mg/kg/24 h; 2 Log Kill f24AUC/MBC ([8]; MRSA, q 72 h regimen): 70; 2 Log Kill f24AUC/MIC ([8]; MRSA, q 72 h regimen): 292; 2 Log Kill mg/kg/24 h ([8]; MRSA, q 72 h regimen): 85 mg/kg/24 h; Static Effect f24AUC/MBC ([8]; MRSA, q 72 h regimen): 35.3; Static Effect f24AUC/MIC ([8]; MRSA, q 72 h regimen): 147; Static Effect mg/kg/72 h ([8]; MRSA, q 72 h regimen): 43 mg/kg/72 h; 1 Log Kill f24AUC/MBC [8, 9]: 86.6 ± 27.6; 1 Log Kill f24AUC/MIC [8, 9]: 268 ± 119; 1 Log Kill mg/kg/24 h [8, 9]: 43.7 ± 9.5 mg/kg/24 h; 2 Log Kill f24AUC/MBC [8, 9]: 110 ± 42; 2 Log Kill f24AUC/MIC [8, 9]: 332 ± 131; 2 Log Kill mg/kg/24 h [8, 9]: 55 ± 14 mg/kg/24 h; Static Effect f24AUC/MBC [8, 9]: 101 ± 72; Static Effect f24AUC/MIC [8, 9]: 265 ± 143; Static Effect mg/kg/24 h [8, 9]: 37.1 ± 9.1 mg/kg/24 h; 1 Log Kill f24AUC/MBC [8, 10]: 75.9 ± 45.2; 1 Log Kill f24AUC/MIC [8, 10]: 213 ± 8.14; 1 Log Kill mg/kg/24 h [8, 10]: 94 ± 46 mg/kg/24 h; 2 Log Kill f24AUC/MBC [8, 10]: 101 ± 61; 2 Log Kill f24AUC/MIC [8, 10]: 266 ± 88; 2 Log Kill mg/kg/24 h [8, 10]: 120 ± 54 mg/kg/24 h; Static Effect f24AUC/MBC [8, 10]: 55 ± 31; Static Effect f24AUC/MIC [8, 10]: 160 ± 67; Static Effect mg/kg/72 h [8, 10]: 72 ± 41 mg/kg/72 h; 1 Log Kill f24AUC/MBC ([8]; SA25923, q 24 h regimen): 60; 1 Log Kill f24AUC/MIC ([8]; SA25923, q 24 h regimen): 250; 1 Log Kill mg/kg/24 h ([8]; SA25923, q 24 h regimen): 51.2 mg/kg/24 h; 2 Log Kill f24AUC/MBC ([8]; SA25923, q 24 h regimen): 69.3; 2 Log Kill f24AUC/MIC ([8]; SA25923, q 24 h regimen): 289; 2 Log Kill mg/kg/24 h ([8]; SA25923, q 24 h regimen): 60 mg/kg/24 h; Static Effect f24AUC/MBC ([8]; SA25923, q 24 h regimen): 52; Static Effect f24AUC/MIC ([8]; SA25923, q 24 h regimen): 216; Static Effect mg/kg/24 h ([8]; SA25923, q 24 h regimen): 42.7 mg/kg/24 h; 1 Log Kill f24AUC/MBC ([8]; SA25923, q 72 h regimen): 76.1; 1 Log Kill f24AUC/MIC ([8]; SA25923, q 72 h regimen): 317; 1 Log Kill mg/kg/24 h ([8]; SA25923, q 72 h regimen): 185 mg/kg/24 h; 2 Log Kill f24AUC/MBC ([8]; SA25923, q 72 h regimen): 88.1; 2 Log Kill f24AUC/MIC ([8]; SA25923, q 72 h regimen): 367; 2 Log Kill mg/kg/24 h ([8]; SA25923, q 72 h regimen): 214 mg/kg/24 h; Static Effect f24AUC/MBC ([8]; SA25923, q 72 h regimen): 66; Static Effect f24AUC/MIC ([8]; SA25923, q 72 h regimen): 274; Static Effect mg/kg/72 h ([8]; SA25923, q 72 h regimen): 160 mg/kg/72 h

Reference: patent US8143212B2 (Vicuron Pharmaceuticals Inc., priority 2002, dated 2012)
